Data set [1] can be described thus: Solubility in culture media and buffers. It counts as physicochemical.
Data set [2] has as its system MCF-7 (estrogen-dependent human breast cancer cells). In words: MTT assay. It counts as cell-based. To be noted: MCF7, MCF-7, MTT, read-out: IC50, cytotoxicity. As for the experimental part:
(§1) Therefore, the whole set of compounds were tested by using MTT assay in order to check their overall cytotoxic effect. The growth of cells was monitored after 24 and 48 h of incubation with the increased concentrations (1–100 µg/ml) of the thiosemicarbazide derivatives. […] This confirms that the compounds tested combine different mechanisms of anticancer activity, and DNA topoisomerase II inhibition is only one of them.
(§2) Cytotoxicity of the synthesised compounds were examined against a panel of the cancer cell lines, MCF-7 (estrogen-dependent human breast cancer cells), MDA-MB-231 (oestrogen-independent human breast cancer cells), SCC- 25 (squamous cell carcinoma of the tongue), FaDu (squamous cell carcinoma of the pharynx), A- 549 (human lung carcinoma), AGS (human gastric adenocarcinoma), LS-180, HT-29 (colon cancer cell lines), T98G (glioblastoma cells), A375 (melanoma cells). Human embryonic kidney (HEK-293) cells and human normal skin fibroblasts (CRL-2072) were used as reference cell lines. The investigated cell lines were obtained from American Type Culture Collection (ATCC; Manassas, VA, USA). A375, MCF-7, MDA-MB-231, T98G cells were cultured in Dulbecco’s Modified Eagle’s Medium (DMEM) (Sigma Aldrich, St. Louis, MO, USA) supplemented with 10% heat inactivated foetal bovine serum (FBS), penicillin (100 U/mL), and streptomycin (100 μg/mL). SCC-25 cells were cultured in 1:1 mixture of Dulbecco’s modified Eagle’s medium and Ham’s F12 Medium (Sigma Aldrich, St. Louis, MO, USA) supplemented with 400 ng/ml hydrocortisone, 10% FBS, penicillin (100 U/mL), and streptomycin (100 μg/mL). A549 and AGS cells were maintained in F-12K Medium (Sigma Aldrich, St. Louis, MO, USA). LS-180 and FaDu cells were cultured in Eagle’s Minimum Essential Medium. HT-29 cells were maintained in McCoy’s 5 A Medium (Sigma Aldrich, St. Louis, MO, USA) supplemented with 10%FBS, penicillin (100 U/mL), and streptomycin (100 μg/mL). All the cells were maintained at 37 °C in a humidified atmosphere of 5% CO2.
(§3) The synthesised compounds were dissolved in DMSO in order to obtain stock solutions. At the day of the experiment, the suspension of cells (1 × 10^5 cells/mL) in the respective medium was applied to a 96-well plate at 100 μL per well. […] The control cells were cultured only with a medium containing 2% FBS. Cytotoxicity of DMSO was also checked at concentrations present in respective dilutions of stock solution. After 24 h (or 48 h) of incubation, 15 μL of MTT working solution (5 mg/mL in PBS) was added to each well. The plate was incubated for 3 h. Subsequently, 100 μL of 10% SDS solution was added to each well. Cells were incubated overnight at 37 °C to dissolve the precipitated formazan crystals. The concentration of the dissolved formazan was evaluated by measuring the absorbance at λ = 570 nm, using a microplate reader (Epoch, BioTek Instruments, Inc., Winooski, VT, USA). At least two independent experiments were performed in triplicates. The results of the MTT assay were expressed as mean ± SD. […] IC50 values of the investigated derivatives and standards were calculated using the IC50 calculator.[23]
Background: Tetrazolium dyes change colour on reduction, which living cells bring about.

Data set [3] deals with MDA-MB-231 (estrogen-independent human breast cancer cells). Kind of data set: MTT assay. It counts as cell-based. To be noted: MDA-MB-231, MTT, read-out: IC50, cytotoxicity. As to the method:
as §1, §2, §3

The test system of data set [4] is LS180 (colon cancer cell line). Kind of data set: MTT assay. The following applies: Homo sapiens, read-out: IC50, cytotoxicity. It counts as cell-based. As to the method: as §1, §2, §3
In data set [5] the test system is FaDu (squamous cell carcinoma of the pharynx). Kind of data set: MTT assay. The following applies: Homo sapiens, read-out: IC50, cytotoxicity. It counts as cell-based. As for the experimental part: as §1, §2, §3
Data set [6] relates to A549 (human lung carcinoma). Kind of data set: MTT assay. It counts as cell-based. To be noted: read-out: IC50, cytotoxicity. As to the method: as §1, §2, §3
Data set [7] deals with AGS (human gastric adenocarcinoma). In words: MTT assay. It counts as cell-based. The following applies: read-out: IC50, cytotoxicity. As to the method: as §1, §2, §3
Data set [8] has as its system T98G (glioblastoma cells). Kind of data set: MTT assay. It counts as cell-based. The following applies: Homo sapiens, read-out: IC50, cytotoxicity. As for the experimental part:
as §1, §2, §3

The next data set relates to A375 (melanoma cells). In words: MTT assay. It counts as cell-based. To be noted: Homo sapiens, read-out: IC50, cytotoxicity. As to the method: as §1, §2, §3
Data set [9] deals with HT-29 (colon cancer cell line). In words: MTT assay. It counts as cell-based. The following applies: Homo sapiens, HT-29, MTT, read-out: IC50, cytotoxicity. As for the experimental part: as §1, §2, §3
Another data set can be described thus: MTT assay. It counts as cell-based. To be noted: human, HEK-293 cells (normal reference cell line), HEK-293 (normal cells), read-out: IC50, cytotoxicity. As for the experimental part:
as §1, §2, §3

Data set [10] deals with SCC-25 (squamous cell carcinoma of the tongue). Kind of data set: MTT assay. It counts as cell-based. To be noted: Homo sapiens, SCC-25, MTT, read-out: IC50, cytotoxicity. As to the method:
as §1, §2, §3

SMILES strings stand for the structures. ≈ marks a conversion by molar mass, not a printed value. Where two headings read alike, the source gives them in different places.

The values that follow come from article PMC9648375, “Identification of the first-in-class dual inhibitors of human DNA topoisomerase IIα and indoleamine-2,3-dioxygenase 1 (IDO 1) with strong anticancer properties” (Journal of Enzyme Inhibition and Medicinal Chemistry, 2022).

Broadly, the melting point is the temperature of the solid-liquid transition. Turning to `O=C(NNC(=S)Nc1ccc(F)cc1F)c1ccccc1[N+](=O)[O-]` [Compound 11, 4-(2,4-Difluorophenyl)-1-(2-nitrobenzoyl)thiosemicarbazide], the melting point fell in the range of 182 to 184 °C. Also, the “solubility in culture media and buffers” value in data set [1] was “low solubility”.
As to `Cc1cccc(C(=O)NC(=S)NNC(=O)c2ccc(O)c([N+](=O)[O-])c2)c1` [Compound 12, 4-(3-Methylbenzoyl)-1-(4-hydroxy-3-nitrobenzoyl)thiosemicarbazide], the melting point lay within 190 to 192 °C. In addition, the “solubility in culture media and buffers” value in data set [1] was “low solubility”.
The term IC50 denotes the concentration needed to halve the response being measured. `O=C(Cc1cccc2ccccc12)NNC(=S)NC(=O)c1ccccc1Cl` [Compound 8, 4-(2-Chlorobenzoyl)-1-[(naphth-1-yl)acetyl]thiosemicarbazide] gave a melting point of 174 to 176 °C. Also, in data set [2] (24h), the IC50 was above 100 µg/mL. Further, the IC50 in [2] (48h) is 12.7 µg/mL (≈ 32 µM). In addition, the IC50 in data set [3] (24h) is above 100 µg/mL. Further, in data set [3] (48h), the IC50 turned out to be 17.2 µg/mL (≈ 43.3 µM). Besides, in data set [4] (24h), the IC50 is above 100 µg/mL. Besides, the half-maximal inhibitory concentration (IC50) in data set [4] (48 h) amounted to 41.1 µg/mL (≈ 103 µM). For the same molecule, the half-maximal inhibitory concentration (IC50) in data set [5] (24h) was above 100 µg/mL. Moreover, the 50% inhibitory concentration (IC50) in data set [5] (48 h) was determined as 12.8 µg/mL (≈ 32.2 µM). Besides, the IC50 in data set [6] (24h) was above 100 µg/mL. Moreover, the IC50 in [6] (48h) was above 100 µg/mL. Moreover, the IC50 in data set [7] (24h) is above 100 µg/mL. For the same molecule, in data set [7] (48 h), the IC50 was above 100 µg/mL. The 50% inhibitory concentration (IC50) in data set [8] (24h) is 97.2 µg/mL (≈ 244 µM). Besides, the IC50 in data set [8] (48h) was 11.8 µg/mL (≈ 29.7 µM). Also, the IC50 with A375 (melanoma cells) (A-375, 24h) is above 100 µg/mL. Further, the 50% inhibitory concentration (IC50) in the data set with A375 (melanoma cells) (A-375, 48 h) worked out at 9.45 µg/mL (≈ 23.8 µM). Also, the half-maximal inhibitory concentration (IC50) in data set [9] (24h) was above 100 µg/mL. Besides, in data set [9] (48 h), the half-maximal inhibitory concentration (IC50) amounted to 14.8 µg/mL (≈ 37.1 µM). Besides, the IC50 at 24 h in the data set “MTT assay” (24h) is above 100 µg/mL. Moreover, the IC50 at 48 h in the data set “MTT assay” (48h) was 23.4 µg/mL (≈ 58.9 µM). The concentration for half-maximal inhibition (IC50) in [10] (24h) is above 100 µg/mL. Moreover, the IC50 in [10] (48 h) came out at 29.5 µg/mL (≈ 74.1 µM).
